Data reported in ChEMBL document CHEMBL5625206, “Design, synthesis, and evaluation of novel pleuromutilin aryl acrylate derivatives as promising broad-spectrum antibiotics especially for combatting multi-drug resistant gram-negative bacteria” (Eur J Med Chem, 2023).
Values after ≈ are worked out from the molar mass of the structure shown. Active and inactive are the calls of the source. The rule behind the calls is not given here.

Key:
[1] = system: Staphylococcus epidermidis; assay: Antibacterial activity against Staphylococcus epidermidis ATCC 12228 assessed as bacterial growth inhibition incubated for 24 hrs by CLSI based broth microdilution method; type: functional
[2] = system: Escherichia coli; assay: Antibacterial activity against Escherichia coli ATCC 25922 assessed as bacterial growth inhibition incubated for 24 hrs by CLSI based broth microdilution method; type: functional
[3] = system: Acinetobacter baumannii; assay: Antibacterial activity against Acinetobacter baumannii ATCC 19606 assessed as bacterial growth inhibition incubated for 24 hrs by CLSI based broth microdilution method; type: functional
[4] = system: Staphylococcus aureus; assay: Antibacterial activity against methicillin-resistant Staphylococcus aureus 171 clinical isolate assessed as bacterial growth inhibition incubated for 24 hrs by CLSI based broth microdilution method; type: functional
[5] = system: Enterococcus; assay: Antibacterial activity against vancomycin-resistant Enterococcus 80 clinical isolate assessed as bacterial growth inhibition incubated for 24 hrs by CLSI based broth microdilution method; type: functional
[6] = system: Acinetobacter baumannii; assay: Antibacterial activity against carbapenem-resistant Acinetobacter baumannii 882 clinical isolate assessed as bacterial growth inhibition incubated for 24 hrs by CLSI based broth microdilution method; type: functional
[7] = system: Mesomycoplasma hyopneumoniae; assay: Anti-mycoplasma activity against Mycoplasma hyopneumoniae J-NCYC10110 assessed as bacterial growth inhibition incubated for 7 days; type: functional; details: J-NCYC10110, 168 h, time 7 day
[8] = system: Staphylococcus aureus; assay: Induction of cell damage in methicillin-resistant Staphylococcus aureus ATCC 33591 assessed as decrease in intracellular ATP concentration at 2 times MIC incubated for 30 mins by fluorescence based analysis relative to control; type: functional; set-up: scale not given: the % may be the effect or the level left; details: 0.5 h
[9] = system: Staphylococcus aureus; assay: Induction of cell damage in methicillin-resistant Staphylococcus aureus ATCC 33591 assessed as intracellular pH at MIC incubated for 30 mins by fluorescence based analysis (reference value: 6.34 +/- 0.10); type: functional; details: 0.5 h
[10] = system: Staphylococcus aureus; assay: Disruption of cell membrane integrity in methicillin-resistant Staphylococcus aureus ATCC 33591 assessed as wrinkled cell surface at MIC incubated for 4 hrs by FESEM analysis; type: functional, organism-based
[11] = system: Staphylococcus aureus; assay: Disruption of cell membrane integrity in methicillin-resistant Staphylococcus aureus ATCC 33591 at 4 times MIC incubated for 4 hrs by FESEM analysis; type: functional, organism-based
[12] = system: Staphylococcus aureus; assay: Antibacterial activity against methicillin-resistant Staphylococcus aureus ATCC 33591 infected in neutropenic Kunming mouse model assessed as reduction in infection-induced inflammatory cell inflammation in liver at 10 mg/kg, ip measured after 7 days; type: functional, organism-based; details: time 7.0 day
[13] = system: Staphylococcus aureus; assay: Antibacterial activity against methicillin-resistant Staphylococcus aureus ATCC 33591 infected in neutropenic Kunming mouse model assessed as reduction in infection-induced lung damage at 20 mg/kg, ip measured after 7 days; type: functional, organism-based; details: time 7.0 day
[14] = system: Staphylococcus aureus; assay: Antibacterial activity against methicillin-resistant Staphylococcus aureus ATCC 33591 infected in neutropenic Kunming mouse model assessed as restoration of infection- induced change in cell morphology in kidney at 20 mg/kg, ip measured after 7 days; type: functional, organism-based; details: time 7.0 day
[15] = Tmax in fasted Sprague-Dawley rat at 1 mg/kg, iv by LC-MS/MS analysis; type: ADME, organism-based; details: in vivo
[16] = Half life in fasted Sprague-Dawley rat at 1 mg/kg, iv by LC-MS/MS analysis; type: ADME, organism-based; details: in vivo
[17] = AUC (0 to t) in fasted Sprague-Dawley rat at 1 mg/kg, iv by LC-MS/MS analysis; type: ADME, organism-based; details: in vivo
[18] = Toxicity in Sprague-Dawley rat assessed as abnormal clinical symptoms at 10 to 100 mg/kg, IG measured for 14 days; type: organism-based; details: in vivo, po, 336 h, dose 10-100 mg/kg, time 14 day
[19] = Toxicity in fasted Sprague-Dawley rat assessed as mortality rate at 100 mg/kg, IG measured for 14 days; type: organism-based; details: in vivo, po, time 14 day
[20] = Toxicity in fasted Sprague-Dawley rat assessed as mortality rate at 500 mg/kg, IG measured for 14 days; type: organism-based; details: in vivo, po, time 14 day
[21] = Toxicity in fasted female Sprague-Dawley rat assessed as body weight at 500 mg/kg, IG measured on same day (reference value: 165.2 +/- 8.1 g); type: organism-based; details: in vivo, po
[22] = Toxicity in fasted male Sprague-Dawley rat assessed as relative liver weight ratio at 224 mg/kg, IG measured for 14 days (reference value: 3.616 +/- 0.286); type: organism-based; details: in vivo, po, 336 h, time 14 day
[23] = Toxicity in fasted male Sprague-Dawley rat assessed as relative liver weight ratio at 331 mg/kg, IG measured for 14 days (reference value: 3.616 +/- 0.286); type: organism-based; details: in vivo, po, 336 h, time 14 day
[24] = Toxicity in fasted male Sprague-Dawley rat assessed as relative kidney weight ratio at 100 mg/kg, IG measured for 14 days (reference value: 0.820 +/- 0.072); type: organism-based; details: in vivo, po, 336 h, time 14 day
[25] = Toxicity in fasted female Sprague-Dawley rat assessed as relative kidney weight ratio at 100 mg/kg, IG measured for 14 days (reference value: 0.802 +/- 0.031); type: organism-based; details: in vivo, po, 336 h, time 14 day
[26] = Toxicity in fasted female Sprague-Dawley rat assessed as relative kidney weight ratio at 148 mg/kg, IG measured for 14 days (reference value: 0.802 +/- 0.031); type: organism-based; details: in vivo, po, 336 h, time 14 day
[27] = Toxicity in fasted female Sprague-Dawley rat assessed as relative kidney weight ratio at 331 mg/kg, IG measured for 14 days (reference value: 0.802 +/- 0.031); type: organism-based; details: in vivo, po, 336 h, time 14 day
[28] = Toxicity in fasted male Sprague-Dawley rat assessed as relative heart weight ratio at 331 mg/kg, IG measured for 14 days (reference value: 0.396 +/- 0.043); type: organism-based; details: in vivo, po, 336 h, time 14 day
[29] = Toxicity in fasted female Sprague-Dawley rat assessed as relative heart weight ratio at 331 mg/kg, IG measured for 14 days (reference value: 0.429 +/- 0.016); type: organism-based; details: in vivo, po, 336 h, time 14 day
[30] = Toxicity in fasted male Sprague-Dawley rat assessed as relative heart weight ratio at 500 mg/kg, IG measured for 14 days (reference value: 0.396 +/- 0.043); type: organism-based; details: in vivo, po, 336 h, time 14 day
[31] = Toxicity in fasted female Sprague-Dawley rat assessed as relative lung weight ratio at 100 mg/kg, IG measured for 14 days (reference value: 0.534 +/- 0025); type: organism-based; details: in vivo, po, 336 h, time 14 day
[32] = Toxicity in fasted male Sprague-Dawley rat assessed as relative lung weight ratio at 148 mg/kg, IG measured for 14 days (reference value: 0.437 +/- 0.064); type: organism-based; details: in vivo, po, 336 h, time 14 day
[33] = Toxicity in fasted female Sprague-Dawley rat assessed as relative lung weight ratio at 224 mg/kg, IG measured for 14 days (reference value: 0.534 +/- 0025); type: organism-based; details: in vivo, po, 336 h, time 14 day
[34] = Toxicity in fasted male Sprague-Dawley rat assessed as relative lung weight ratio at 500 mg/kg, IG measured for 14 days (reference value: 0.437 +/- 0.064); type: organism-based; details: in vivo, po, 336 h, time 14 day
[35] = Toxicity in fasted female Sprague-Dawley rat assessed as relative spleen weight ratio at 224 mg/kg, IG measured for 14 days (reference value: 0.223 +/- 0.019); type: organism-based; details: in vivo, po, 336 h, time 14 day
[36] = Toxicity in fasted male Sprague-Dawley rat assessed as relative spleen weight ratio at 500 mg/kg, IG measured for 14 days (reference value: 0.246 +/- 0.037); type: organism-based; details: in vivo, po, 336 h, time 14 day
[37] = Toxicity in fasted female Sprague-Dawley rat assessed as relative ovary weight ratio at 331 mg/kg, IG measured for 14 days (reference value: 0.061 +/- 0.010); type: organism-based; details: in vivo, po, 336 h, time 14 day

## C=C[C@]1(C)C[C@@H](OC(=O)COC(=O)/C=C/c2ccc(N(C)C)cc2)[C@]2(C)[C@H](C)CC[C@]3(CCC(=O)[C@H]32)[C@@H](C)[C@@H]1O
[1]
  MIC: 1 µg/mL (≈ 1.81 µM)
[2]
  MIC: 16 µg/mL (≈ 29 µM)
[3]
  MIC: 32 µg/mL (≈ 58 µM)
[4]
  MIC: 8 µg/mL (≈ 14.5 µM)
[5]
  MIC: 4 µg/mL (≈ 7.25 µM)
[6]
  MIC: 64 µg/mL (≈ 116 µM)
[7]
  MIC: 0.008 µg/mL (≈ 0.0145 µM)
[8]
  Activity: 86.52%
[9]
  pH: 4.27
[10]
  Activity: Active
[11]
  Activity: Active
[12]
  Activity: inactive
[13]
  Activity: Active
[14]
  Activity: Active
[15]
  Tmax: 4.98 min
[16]
  half-life: 40.8 min
[17]
  AUC(0-t): 512 ng·h/mL
[18]
  Activity: Non-Toxic
[19]
  mortality at 336 h: 0%
[20]
  mortality at 336 h: 10%
[21]
  Activity: 159.5 g
[22]
  Ratio: 3.699
[23]
  Ratio: 3.528
[24]
  Ratio: 0.822
[25]
  Ratio: 0.81
[26]
  Ratio: 0.818
[27]
  Ratio: 0.832
[28]
  Ratio: 0.374
[29]
  Ratio: 0.471
[30]
  Ratio: 0.376
[31]
  Ratio: 0.522
[32]
  Ratio: 0.415
[33]
  Ratio: 0.531
[34]
  Ratio: 0.399
[35]
  Ratio: 0.249
[36]
  Ratio: 0.209
[37]
  Ratio: 0.067
